Three molecules from PMC11874007, “Switching Roles—Exploring Concentration-Dependent Agonistic versus Antagonistic Behavior of Integrin Ligands” (Journal of Medicinal Chemistry, 2025) can be followed below.

Several values for one entry are separate records, joined by “and”; a condition that tells them apart may be missing. Equal values may be shown once.

Assay [1] relates to M21 (αvβ3+), HN (αvβ6+), RKO (α5β1+) cells. As to the kind of experiment: Time-dependent cellular uptake of Cy5.5-labeled ligands in cells overexpressing the targeted integrin. It counts as cell-based. The conditions noted are these: state within 30 min, Cy5.5-conjugated ligands, target integrin-expressing cells. An excerpt: For intracellular drug delivery, integrin ligands designed as drug-conjugated vehicles have to be easily and selectively internalized by tumor cells (over)expressing the respective targeted integrin subtype. […] It should be noted here that HN, OV-MZ-6, and RKO cells also express low αvβ3 expression levels.
Figure 7 Cellular uptake of Cy5.5-labeled integrin ligands. […] Nuclei were costained with Hoechst 33342 (blue signal) and cell membranes with CellMask Green (green signal). Merge of stains (yellow signal) indicated colocalization of ligands at the cell membrane. Scale bar: 50 μm.
Microchamber cell culture slides were coated with fibronectin (2 μg/mL), followed by cell seeding at a density of 50,000 cells/well. After 24 h of cultivation, cells were treated with integrin ligands L1-Cy5.5 to L5-Cy5.5 (1 μM in 0.01% (w/v) CaCl2 and 0.1% (w/v) BSA in PBS; 250 μL/well) for 3, 30, 60, or 300 min at 37 °C. The cells were washed in PBS/0.01% (w/v) CaCl2 (6 × 800 μL) and the fluorescence signal intensity recorded using the LSM 700 microscope (Zeiss, Jena, Germany). CellMask Green Plasma Membrane Stain was used to stain the cell membrane; nuclei were stained with Hoechst 33342.

The next assay concerns the target T1, human αvβ6-integrin (Homo sapiens, UniProt P06756+P18564).
T1 construct: purchased R&D 3817-AV-050
As to the kind of experiment: ELISA-type solid-phase binding assay: soluble αvβ6 competing for immobilized LAP (TGF-β). The conditions noted are these: competitive ELISA-type assay, referenced to internal standard RTDLDSLRT
For orientation: ELISA stands for enzyme-linked immunosorbent assay.

The next assay has as its target T2, human α5β1-integrin (Homo sapiens, UniProt P05556+P08648).
T2 construct: purchased R&D 3230-A5-050
As to the kind of experiment: ELISA-type solid-phase binding assay: soluble α5β1 competing for immobilized fibronectin. Conditions: competitive ELISA-type assay, referenced to internal standard cilengitide (L2). How it is done:
Prior to the biological evaluation of the ligands, their specificity and subtype-selective affinity was analyzed by an ELISA (enzyme-linked immune sorbent assay)-type solid-phase ligand binding assay[59] by measuring the competitive binding of soluble purified integrins in the presence of the respective ligands to plate-immobilized purified ECM proteins, as described in Experimental Section: vitronectin (for αvβ3-directed ligands), fibronectin (for α5β1-directed ligands), or the latency-associated peptide (LAP) of transforming growth factor-β (TGF-β) (for αvβ6-directed ligands). Then, we determined whether Cy5.5 conjugation of ligands led to altered ligand binding affinities and integrin subtype selectivity compared to the unlabeled compounds. In the following, we describe in detail the alterations detected.
(3) 2.0 μg/mL mouse-anti-human CD51/61 (BD Biosciences, Franklin Lakes, New Jersey, USA; #555504). (4) 2.0 μg/mL anti-mouse IgG-POD (Sigma-Aldrich, #A9044-2ML). Integrin αvβ6: (1) 0.4 μg/mL LAP (TGF-β) (R&D, #246-LP-025), (2) 0.5 μg/mL human αvβ6 (R&D, #3817-AV-050), (3) 1:500 dilution mouse-anti-human αv (MAB1978) (Merck Millipore, #MAB1978), (4) 2.0 μg/mL anti-mouse IgG-POD (Sigma-Aldrich, #A9044-2ML). Integrin α5β1: (1) 0.5 μg/mL human fibronectin (Sigma-Aldrich, #F0895-1MG), (2) 2.0 μg/mL human α5β1 (R&D, 3230-A5-050), (3) 1.0 μg/mL mouse-anti-human CD49e (BD Biosciences, #555651), (4) 2.0 μg/mL anti-mouse IgG-POD (Sigma-Aldrich, #A9044-2 ML). For Western blot analysis, the following antibodies were used: (p-)p44/42^(erk-1/2) (1) 1:300 dilution of rabbit-anti-human p44/42^(erk-1/2) antibody (Cell Signaling Technology, Frankfurt, Germany, #9102) in 3% (w/v) bovine serum albumin (BSA)/TBS-T, (2) 1:5,000 dilution goat-anti-rabbit horseradish-conjugated secondary antibody in 1% (w/v) BSA/TBS-T. Phospho-p44/42^(erk-1/2): (1) 1:200 dilution rabbit-anti-human p44/42^(erk-1/2) (Thr202/Tyr204) antibody (Cell Signaling Technology, #9101) in 3% (w/v) BSA/TBS-T, (2) 1:5,000 dilution goat-anti-rabbit horseradish-conjugated secondary antibody in 1% (w/v) BSA/TBS-T. FAK: (1) 1:300 dilution mouse-anti-human FAK antibody (Cell Signaling Technology, #9102) in 3% (w/v) BSA/TBS-T, (2) 1:5,000 dilution goat-anti-mouse horseradish-conjugated secondary antibody in 1% (w/v) BSA/TBS-T. Phospho-FAK: (1) 1:300 dilution mouse-anti-human p-FAK antibody (Cell Signaling Technology) in 3% (w/v) BSA/TBS-T, (2) 1:5,000 dilution goat-antimouse horseradish-conjugated secondary antibody in 1% (w/v) BSA/TBS-T. Differences in blotting efficiency and protein loading were normalized by using a primary antibody against glyceraldehyde-3-phosphate dehydrogenase (GAPDH, 1:10,000 dilution in 1% (w/v) BSA/TBS-T, at RT for 45 min (Millipore, Schwalbach, Germany) and a secondary horseradish-conjugated goat-anti-mouse antibody (1:10,000 dilution in 1% (w/v) BSA/TBS-T, 40 min at RT).
The integrin binding assay was done to assess the specificity and subtype-selective affinity of L1–L5 and their respective Cy5.5-conjugated ligands by using isolated and purified integrins in cell-free ligand binding assays, as previously published.[59]Table 2 summarizes the used ECM ligands, integrins, and antibodies. In brief, flat-bottom 96-well plates were coated overnight at 4 °C with the natural ECM integrin ligands, vitronectin (for αvβ3-directed ligands), fibronectin (for α5β1-directed ligands), or LAP of TGF-β1 (for αvβ6-directed ligands) (100 μL/well in buffer containing 15 mM Na2CO3, 35 mM NaHCO3, pH 9.6). Subsequently, each well was washed in PBS, 0.01% (v/v) Tween 20, 137 mM NaCl, 2.7 mM KCl, 10 mM Na2HPO4, 2 mM KH2PO4, pH 7.4 (PBS-T), and blocked for unspecific binding events for 1 h at RT in 20 mM Tris–HCl, pH 7.5, 150 mM NaCl, 1 mM CaCl2, 1 mM MgCl2, 1 mM MnCl2, and 1% (w/v) BSA. Meanwhile, dilution series of the different integrin ligands and the internal standards were prepared, ranging from 20 μM to 256 pM in 1:5 dilution steps. […]

On to `C#CCCC(=O)NCCCOc1ccc(C(=O)N[C@H](CC(=O)O)Cc2ccc(OCCCNc3cc(OC)ccn3)cc2)cc1` [L1, (S)-4-(4-(3-((4-Methoxypyridin-2-yl)amino)propoxy)phenyl)-3-(4-(3-(pent-4-ynamido)propoxy)benzamido)butanoic Acid], for which, in assay [1], the “Endocytosis of Cy5.5-conjugated ligand” value is reported as “started within 30 min”. Besides, the IC50 (commonly the concentration needed to halve the response being measured) on human αvβ6-integrin turned out to be 152 ± 60.8 nM; at human α5β1-integrin it was 73.4 ± 16.6 nM.
For the molecule `C#CCCC(=O)NCCCOc1cc(C)c(C(=O)N[C@@H](CNC(=O)CNC(=O)c2cccc(NC(=N)N)c2)C(=O)O)c(C)c1` [L5, (S)-2-(2,6-Dimethyl-4-(3-(pent-4-ynamido)propoxy)benzamido)-3-(2-(3-guanidinobenzamido)acetamido)propanoic Acid], the IC50 at human αvβ6-integrin was over 1000 nM; on human α5β1-integrin, 1.2 nM and 1.24 nM.
Turning to c(FRGDLAFp(NMe)K) [L3], the “Endocytosis of Cy5.5-conjugated ligand” value in assay [1] is “already completed”.
